Assay results taken from patent publication US10696686B2, “Herbicidally active (alkynyl-phenyl)-substituted cyclic dione compounds and derivatives thereof” (Syngenta Limited, priority 2013, dated 2020).

Columns and labels:
Type in all cases: in vivo
[1] = test system: Brachiaria plantaginea (BRAPL); test: Biological Example 2 glasshouse assay (IF50 formulation, X-77), post-emergence; details: 14 or 15 DAA
Protocol: (§1) Seeds of a variety of monocotyledonous and dicotyledonous test plants are sown in standard soil in pots. The plants are cultivated for one day (for pre-emergence) or for about 12 days (range=10-13 days) (for post-emergence) under controlled conditions in a glasshouse (warm climate species at 24/18° C., cool climate species at 20/16° C., both at day/night; 16 hours light; 65% humidity). An “instant formulation”, known as the “IF50”, containing 50 g/litre (i.e. 5% w/v) of the “technical” (i.e. unformulated) active ingredient is prepared by dissolving the active ingredient in a mixture of organic solvents and emulsifier, details of which are provided in the Table below. This IF50 is then mixed with a small, variable amount of acetone to aid dissolution, before addition of a 0.2% v/v aqueous solution of the adjuvant X-77 (which is a mixture of alkyl aryl polyoxyethylene glycols and free fatty acids in isopropanol, CAS Registry number 11097-66-8), as the aqueous diluent, to form an aqueous spray solution which contains a predetermined concentration of the active ingredient (which varies depending on the application rate of the active ingredient to the plants) and 0.2% v/v of the adjuvant X-77. This aqueous spray solution is then sprayed onto the plants, after one day's cultivation (for pre-emergence) or after about 12 days' cultivation (for post-emergence).
(§2) The test plants are then grown on, in a glasshouse (greenhouse) under controlled conditions (at either 24/18° C. or 20/16° C. (day/night) as mentioned above; 16 hours light; 65% humidity) and are watered twice daily. Either 14 or 15 days after application of the herbicide (14 or 15 DAA) (for post-emergence), or 20 days after application of the herbicide (20 DAA) (for pre-emergence), the test plants are evaluated visually, and an assessed percentage phytotoxicity score is given for each herbicidal application on each plant species (where 100%=total damage to plant; 0%=no damage to plant). Some of the typical test plants are as follows: Cool climate crop plants: Triticum aestivum (TRZAW, winter wheat), Brassica napus (BRSNN, rape, also called oilseed rape or rapeseed), Beta vulgaris (BEAVA, sugarbeet). Warm climate crop plants: Glycine max (GLXMA, soybean). Cool climate (“cool season”) grassy monocotyledonous weeds: Alopecurus myosuroides (ALOMY), Avena fatua (AVEFA), Lolium perenne (LOLPE), Poa annua (POAAN), Bromus tectorum (BROTE). Warm climate (“warm season”) grassy monocotyledonous weeds: Setaria faberi (SETFA), SORVU (Sorghum bicolor (L.) Moench ssp. Bicolor, or Sorghum vulgare Pers.), Digitaria sanguinalis (DIGSA), Echinochloa crus-galli (ECHCG), Brachiaria plantaginea (BRAPL), Zea mays (ZEAMX, corn, maize, e.g. volunteer corn), Panicum miliaceum (PANMI).

[2] = test system: Beta vulgaris (BEAVA, sugarbeet); test: as above; details: for percentage phytotoxicity score BEAVA: post-emergence, 14 or 15 DAA
Protocol: as §1, §2

[3] = test system: grassy (in particular warm climate grassy) monocotyledonous weeds; test: Post-emergence herbicidal activity, summary statements on Biological Examples 1 to 3; details: applied at about 250 g/ha post-emergence; Biological Examples 1 and 2
Protocol: Seeds of a variety of test plant species were sown in standard soil ** in pots. After cultivation for one day (pre-emergence) or after 8 days cultivation (post-emergence) under controlled conditions in a glasshouse (at 24/16° C., day/night; 14 hours light; 65% humidity), the plants were sprayed with an aqueous spray solution derived from the formulation of the technical active ingredient (the test herbicide) in acetone/water (50:50) solution containing 0.5% Tween 20 (polyoxyethylene sorbitan monolaurate, CAS Reg. No. 9005-64-5). The test plants were then grown on under controlled conditions in a glasshouse (at 24/16° C., day/night; 14 hours light; 65% humidity) and watered twice daily. 13 Days after application of the test herbicide, for pre- and post-emergence, the test was evaluated visually for percentage phytotoxicity to each plant (where 100%=total damage to plant; 0%=no damage to plant). Generally, each test herbicide is only tested on 1 plant per plant species for each application rate tested and for each application timing. ** The “standard soil” in Biological Example 1 is usually a “sand” or “sandy loam” type of soil.
Seeds of a variety of monocotyledonous and dicotyledonous test plants are sown in standard soil in pots. The plants are cultivated for one day (for pre-emergence) or for about 12 days (range=10-13 days) (for post-emergence) under controlled conditions in a glasshouse (warm climate species at 24/18° C., cool climate species at 20/16° C., both at day/night; 16 hours light; 65% humidity). An “instant formulation”, known as the “IF50”, containing 50 g/litre (i.e. 5% w/v) of the “technical” (i.e. unformulated) active ingredient is prepared by dissolving the active ingredient in a mixture of organic solvents and emulsifier, details of which are provided in the Table below. […]
The test plants are then grown on, in a glasshouse (greenhouse) under controlled conditions (at either 24/18° C. or 20/16° C. (day/night) as mentioned above; 16 hours light; 65% humidity) and are watered twice daily. Either 14 or 15 days after application of the herbicide (14 or 15 DAA) (for post-emergence), or 20 days after application of the herbicide (20 DAA) (for pre-emergence), the test plants are evaluated visually, and an assessed percentage phytotoxicity score is given for each herbicidal application on each plant species (where 100%=total damage to plant; 0%=no damage to plant). […]

**Q.** C#CCC1CC(=O)C(c2c(F)cc(C#CC)cc2OC)C1=O (stereo not drawn) [Compound A8, 2-(2-fluoro-6-methoxy-4-prop-1-ynyl-phenyl)-4-prop-2-ynyl-cyclopentane-1,3-dione] was tested. Which “percentage phytotoxicity score BRAPL” value ([1]; 125 g/ha (rate taken from row order)) did it give?
**A.** 100%

**Q.** What about the “percentage phytotoxicity score BRAPL” value ([1]; 250 g/ha (rate taken from row order)) of the same molecule?
**A.** 100%

**Q.** What about the “phytotoxicity against sugarbeet (in words)” value ([2]; e.g. when applied at 30 g/ha post-emergence, see Biological Example 2) of the same molecule?
**A.** low or reasonably low phytotoxicity

**Q.** And the “percentage phytotoxicity score BEAVA” value ([2]; 125 g/ha)?
**A.** 10%

**Q.** And the “percentage phytotoxicity score BEAVA” value ([2]; 250 g/ha)?
**A.** 10%

**Q.** And the “post-emergent herbicidal potency against grassy monocotyledonous weeds (in words)” value [3]?
**A.** potent post-emergent herbicides
